In patent US20210284621A1 (priority 2018, published 2021):
Read-outs that look alike come from different tables or passages of the source.

Columns and labels:
CB1 receptor [1] = target: T1, CB1 receptor (Homo sapiens, UniProt P21554); assay: cAMP Assay #2: Hit Hunter cAMP assay, Gi-coupled agonist activity, CB1; type: cell-based; parameters: host or cells: PathHunter cell lines
CB1 receptor [2] = target: T1, CB1 receptor; assay: cAMP Assay #1: CB1 adenylylcyclase assay in CHO cells; type: cell-based; parameters: expressed in transfected cells; host or cells: CHO cells
Experimental: (§1) Compounds of the invention were assayed in an adenylylcyclase assay to determine agonist activity on the CB1 and CB2 receptors, the results of which are provided in Table 4. Exemplary methods for the adenylylcyclase assay can be found in the literature, for example, in Rhee, M-H., et al. Cannabinol Derivatives: Binding to Cannabinoid Receptors and Inhibition of Adenylylcyclase. J Med Chem. 40: 3228-3233 (1997).
CB1 Activity as determined by Adenylylcyclase Assay: CB1 receptor agonist activity was measured by measuring cAMP production. A compound of the invention was incubated with CHO cells expressing human recombinant CB1 for 20 minutes at 37° C.
(§2) Determination of EC50 values: The EC50 values (concentration producing a half-maximal response) were determined by non-linear regression analysis of the concentration-response curves generated with mean replicate values using Hill equation curve fitting: Y=D+[(A−D)/(1+(C/C50)^nH)], where Y=response, A=left asymptote of the curve, D=right asymptote of the curve, C=compound concentration, and C50=EC50, and nH=slope factor. This analysis was performed using software developed at Cerep (Hill software) and validated by comparison with data generated by the commercial software SigmaPlot® 4.0 for Windows® (© 1997 by SPSS Inc.).

CB2 receptor [3] = target: T2, CB2 receptor (Homo sapiens, UniProt P34972); assay: cAMP Assay #1: CB2 adenylylcyclase assay in CHO cells; type: cell-based; parameters: expressed in transfected cells; host or cells: CHO cells
T2 sequence (P34972 whole entry): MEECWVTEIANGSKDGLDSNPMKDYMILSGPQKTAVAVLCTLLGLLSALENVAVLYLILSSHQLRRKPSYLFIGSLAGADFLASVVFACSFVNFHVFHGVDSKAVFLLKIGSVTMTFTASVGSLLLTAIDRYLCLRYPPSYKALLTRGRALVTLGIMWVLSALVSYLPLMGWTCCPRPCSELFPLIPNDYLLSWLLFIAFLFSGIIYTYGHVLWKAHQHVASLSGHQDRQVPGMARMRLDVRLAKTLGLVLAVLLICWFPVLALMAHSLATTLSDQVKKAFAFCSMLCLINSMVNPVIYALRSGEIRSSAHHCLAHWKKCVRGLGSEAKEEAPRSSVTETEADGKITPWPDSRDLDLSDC
Experimental: as §1
CB2 Activity as determined by Adenylylcyclase Assay: CB2 receptor agonist activity was measured by measuring cAMP production. A compound of the invention was incubated with CHO cells expressing human recombinant CB2 for 10 minutes at 37° C.
as §2

CB2 receptor [4] = target: T2, CB2 receptor; assay: CB2 competitive radioligand binding assay ([3H] WIN-55,212-2); parameters: expressed in transfected cells; host or cells: CHO-K1 cells; details: for inhibition at 0.05 µM: 0.05 μM compound, 2.4 nM [3H] WIN-55,212-2, 90 min 37° C.; for Fold Selectivity (CB1/CB2): Table 2, ratio of Ki CB1/CB2
Method in brief: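 CHO-K1 cells expressing human recombinant CB2 were incubated with compound (0.05 μM, 1% DMSO) and 2.4 nM [3H]WIN-55,212-2 in 20 mM HEPES pH 7.0, 0.5% BSA for 90 min at 37 °C. Percent inhibition of radioligand binding was reported.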

[5] = Hit Hunter cAMP, 20 μM forskolin, control ligand CP55,940, read-out: CB1, EC50
[6] = CHO cells, 20 min 37° C., relative to 10 nM CP 55940, read-out: CB1 Activity EC50 (cAMP)
[7] = CHO cells, 10 min 37° C., relative to 100 nM WIN 55212-2, read-out: CB2 Activity EC50 (cAMP)
[8] = Table 2, read-out: CB2 Binding Ki

T1 sequence (P21554 whole entry): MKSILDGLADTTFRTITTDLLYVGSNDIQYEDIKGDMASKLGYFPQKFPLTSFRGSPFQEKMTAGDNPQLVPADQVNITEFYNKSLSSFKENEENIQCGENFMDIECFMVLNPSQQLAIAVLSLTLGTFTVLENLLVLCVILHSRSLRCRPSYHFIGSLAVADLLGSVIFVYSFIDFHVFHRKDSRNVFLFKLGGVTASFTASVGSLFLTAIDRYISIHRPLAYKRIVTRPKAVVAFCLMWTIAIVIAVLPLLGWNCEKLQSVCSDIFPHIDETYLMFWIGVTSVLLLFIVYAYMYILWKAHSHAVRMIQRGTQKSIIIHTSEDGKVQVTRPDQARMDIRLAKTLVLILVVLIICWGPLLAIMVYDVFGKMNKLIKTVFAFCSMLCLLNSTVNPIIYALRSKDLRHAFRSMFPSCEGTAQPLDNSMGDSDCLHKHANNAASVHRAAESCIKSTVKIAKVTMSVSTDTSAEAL

Structure (SMILES)	EC50 (CB1 receptor [1]) [µM]	EC50 (CB1 receptor [2]) [µM]	EC50 (CB2 receptor [3]) [µM]	Ki (CB2 receptor [4]) [µM]	inhibition at 0.05 µM (CB2 receptor [4]) [%]	EC50 (CB1 receptor [1]; [5]) [µM]	EC50 (CB1 receptor [2]; [6]) [µM]	EC50 (CB2 receptor [3]; [7]) [µM]	Fold Selectivity (CB1/CB2) (CB2 receptor [4])	Ki (CB2 receptor [4]; [8]) [µM]
CCCCCCC(C)(C)c1cc(O)c2c(c1)OC(C)(C)[C@@H]1CC=C(C(=O)O)C[C@@H]21 [AJA, (6aR,10aR)-1-hydroxy-6,6-dimethyl-3-(2-methyl-2-octanyl)-6a,7,10,10a-tetrahydro-6H-benzo[c]chromene-9-carboxylic acid, reference compound]	0.0771	0.0046	0.021	0.633	0	–	–	–	–	–
CCCCCCC(C)(C)c1cc(O)c2c(c1)OC(C)(C)[C@@H]1CC=C(C(=O)NC[C@@H](O)CO)C[C@@H]21 [Compound 55, (6aR,10aR)-N—((R)-2,3-Dihydroxypropyl)-1-hydroxy-6,6-dimethyl-3-(2-methyloctan-2-yl)-6a,7,10,10a-tetrahydro-6H-benzo[c]chromene-9-carboxamide]	–	–	–	–	–	0.175	0.045	0.0052	19	0.033
CCCCCCC(C)(C)c1cc(O)c2c(c1)OC(C)(C)[C@@H]1CC=C(C(=O)NC[C@H](O)CO)C[C@@H]21 [Compound 56, (6aR,10aR)-N—((S)-2,3-Dihydroxypropyl)-1-hydroxy-6,6-dimethyl-3-(2-methyloctan-2-yl)-6a,7,10,10a-tetrahydro-6H-benzo[c]chromene-9-carboxamide]	–	–	–	–	–	0.25	0.0036	0.0087	17	0.041
CCCCCCC(C)(C)c1cc(O)c2c(c1)OC(C)(C)[C@@H]1CC=C(C(=O)OC(C)C)C[C@@H]21 [Compound 29, Isopropyl (6aR,10aR)-1-hydroxy-6,6-dimethyl-3-(2-methyloctan-2-yl)-6a,7,10,10a-tetrahydro-6H-benzo[c]chromene-9-carboxylate]	0.0096	0.0068	0.0023	–	79	–	–	–	–	–
CCCCCCC(C)(C)c1cc(O)c2c(c1)OC(C)(C)[C@@H]1CC=C(C(=O)NC(C)(C)CCO)C[C@@H]21 [Compound 15, (6aR,10aR)-1-Hydroxy-N-(4-hydroxy-2-methylbutan-2-yl)-6,6-dimethyl-3-(2-methyloctan-2-yl)-6a,7,10,10a-tetrahydro-6H-benzo[c]chromene-9-carboxamide]	–	–	–	–	54	0.448	0.068	0.0075	18.3	0.036
CCCCCCC(C)(C)c1cc(O)c2c(c1)OC(C)(C)[C@@H]1CC=C(C(=O)NC(CO)CO)C[C@@H]21 [Compound 25, (6aR,10aR)-N-(1,3-Dihydroxypropan-2-yl)-1-hydroxy-6,6-dimethyl-3-(2-methyloctan-2-yl)-6a,7,10,10a-tetrahydro-6H-benzo[c]chromene-9-carboxamide]	–	–	–	–	36	0.36	0.016	0.011	4.33	0.073
